Key:
Type in all cases: biochemical
Amy1=Stainzyme = assay: amylase storage stability in liquid formulation (pNP release from Ethyliden-blocked-pNPG7); design: key: % of activity in reference formulation at time 0; settings: storage at 37° C.
Experimental: (§1) The storage stability of amylase was assessed at 37° C. Base test formulations were manufactured by making base formulations I to V by mixing the components according to Table 1. Amylases used: Amy1=Stainzyme, Amy2=Amplify, Amy3=Stainzyme Plus L (12L) The respective component (a) or comparative compound was added, if applicable, to the respective base formulation in amounts as indicated in Table 1. The amount of amylase as provided in Table 1 refers to active protein. Water was added to accomplish the balance to 100. […] Amylase activity at certain points in time as indicated in Table 2 was measured quantitatively by the release of the chromophore para-nitrophenol (pNP) from the substrate ([…]-blocked-pNPG7, Roche Applied Science 10880078103). The alpha-amylase degrades the substrate into smaller molecules and α-glucosidase (Roche Applied Science 11626329103), which is present in excess compared to the amylase, process these smaller products until pNP is released; the release of pNP, measured via an increase of absorption at 405 nm, is directly proportional to the amylase activity of the sample. Amylase standard: […] 120 L (Sigma 3403). […] The amylolytic activity values provided were calculated referring to the value determined in the reference formulation at the time 0. The nomenclature of formulations is as follows: the Roman number before the full stop characterizes the base formulation, the Arabian number the type of compound (A.# compound according to invention (component (a)); B.# comparative compound).

Savinase Ultra 16.0L = molecular target: T1, Savinase Ultra 16.0L (Lederbergia lenta, UniProt P29600); assay: protease storage stability in liquid formulation (Suc-AAPF-pNA substrate); settings: storage at 37° C.
T1 construct: purchased Sigma-Aldrich
T1 sequence (P29600 1-269): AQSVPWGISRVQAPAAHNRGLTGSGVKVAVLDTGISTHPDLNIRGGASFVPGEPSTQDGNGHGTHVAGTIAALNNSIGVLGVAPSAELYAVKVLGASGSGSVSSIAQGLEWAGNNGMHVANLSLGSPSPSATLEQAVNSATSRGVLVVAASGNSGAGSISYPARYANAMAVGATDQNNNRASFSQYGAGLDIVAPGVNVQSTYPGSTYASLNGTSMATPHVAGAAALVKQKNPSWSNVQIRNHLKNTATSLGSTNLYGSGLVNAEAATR
Experimental: Base test formulations were manufactured by making base formulations I to V by mixing the components according to Table 1.
Protease used: (S) Savinase Ultra 16.0L (CAS-No. 9014-01-1, EC-No. 232-752-2) was purchased from Sigma-Aldrich
The respective component (a) or comparative compound was added, if applicable, to the respective base formulation in amounts as indicated in Table 1.
The amount of protease as provided in Table 1 refers to active protein.
Water was added to accomplish the balance to 100.
Protease activity at certain points in time as indicated in Table 3 was be determined by employing Succinyl-Ala-Ala-Pro-Phe-p-nitroanilide (Suc-AAPF-pNA, short AAPF) as substrate. pNA is cleaved from the substrate molecule by proteolytic cleavage, resulting in release of yellow color of free pNA which was determined by measuring […]. Measurements were done at 20° C.
The proteolytic activity values provided in Table 3 were calculated referring to the value determined in the reference formulation at the time 0.
The nomenclature of formulations is as follows: the Roman number before the full stop characterizes the base formulation, the Arabian number the type of salt (A.#inventive salt (component (a)); B.# comparative compound). Zero (“0”): no salt, but diethylene glycol.

Amy2=Amplify = assay: amylase storage stability in liquid formulation (pNP release from Ethyliden-blocked-pNPG7); design: key: % of activity in reference formulation at time 0; settings: base formulation III., 1.5 wt % component (a), storage at 37° C.
Experimental: as §1

[1] = base formulation IV., 2.0 wt % component (a), 3 d
[2] = base formulation IV., 2.0 wt % component (a), 7 d
[3] = base formulation IV., 2.0 wt % component (a), 14 d
[4] = base formulation IV., 2.0 wt % component (a), 21 d
[5] = base formulation IV., 2.0 wt % component (a), 28 d
[6] = base formulation IV., 2.0 wt % component (a), 42 d
[7] = base formulation IV., 2.0 wt % component (a), T0
[8] = base formulation I., 1.5 wt % component (a), 3 d
[9] = base formulation I., 1.5 wt % component (a), 7 d
[10] = base formulation I., 1.5 wt % component (a), 14 d
[11] = base formulation I., 1.5 wt % component (a), 21 d
[12] = base formulation I., 1.5 wt % component (a), 28 d
[13] = base formulation I., 1.5 wt % component (a), 42 d
[14] = base formulation I., 1.5 wt % component (a), T0
[15] = base formulation III., 1.5 wt % component (a), 3 d
[16] = base formulation III., 1.5 wt % component (a), 7 d
[17] = base formulation III., 1.5 wt % component (a), 14 d
[18] = base formulation III., 1.5 wt % component (a), 21 d
[19] = base formulation III., 1.5 wt % component (a), 28 d
[20] = base formulation III., 1.5 wt % component (a), 42 d
[21] = base formulation III., 1.5 wt % component (a), T0

In the case of `CCCCOC(=O)CC(O)(CC(=O)OCCCC)C(=O)OCCCC` [A.3, Tributylcitrate], the “amylase activity, referring to reference formulation at time 0” value (“amylase activity, referring” below) (Amy1=Stainzyme; [1]) is reported as 95, the “amylase activity, referring” value (Amy1=Stainzyme; [2]) is reported as 90 and the “amylase activity, referring” value (Amy1=Stainzyme; [3]) is reported as 84. The “amylase activity, referring” value (Amy1=Stainzyme; [4]) was 77, the “amylase activity, referring” value (Amy1=Stainzyme; [5]) was 68 and the “amylase activity, referring” value (Amy1=Stainzyme; [6]) was 57. The “amylase activity, referring” value (Amy1=Stainzyme; [7]) was 98, the “protease activity, referring to reference formulation at time 0” value (“protease activity, referring” for short) (Savinase Ultra 16.0L; [1]) was 98 and the “protease activity, referring” value (Savinase Ultra 16.0L; [2]) was 90. For the same compound, the “protease activity, referring” value (Savinase Ultra 16.0L; [3]) was 85, the “protease activity, referring” value (Savinase Ultra 16.0L; [4]) was 78 and the “protease activity, referring” value (Savinase Ultra 16.0L; [5]) was 70. For the same compound, the “protease activity, referring” value (Savinase Ultra 16.0L; [6]) was 67 and the “protease activity, referring” value (Savinase Ultra 16.0L; [7]) was 99.

`CCCCOC(=O)CC(CC(=O)OCCCC)(OC(C)=O)C(=O)OCCCC` [A.4, Acetyltributylcitrate] was tested, and the “protease activity, referring” value (Savinase Ultra 16.0L; [8]) was 100, the “protease activity, referring” value (Savinase Ultra 16.0L; [9]) was 94 and the “protease activity, referring” value (Savinase Ultra 16.0L; [10]) was 90. The “protease activity, referring” value (Savinase Ultra 16.0L; [11]) was 84, the “protease activity, referring” value (Savinase Ultra 16.0L; [12]) was 82 and the “protease activity, referring” value (Savinase Ultra 16.0L; [13]) was 70. For the same compound, the “protease activity, referring” value (Savinase Ultra 16.0L; [14]) was 102, the “protease activity, referring” value (Savinase Ultra 16.0L; base formulation II., 1.5 wt % component (a), 3 d) was 100 and the “protease activity, referring” value (Savinase Ultra 16.0L; base formulation II., 1.5 wt % component (a), 7 d) was 95. The “protease activity, referring” value (Savinase Ultra 16.0L; base formulation II., 1.5 wt % component (a), 14 d) was 90, the “protease activity, referring” value (Savinase Ultra 16.0L; base formulation II., 1.5 wt % component (a), 21 d) was 85 and the “protease activity, referring” value (Savinase Ultra 16.0L; base formulation II., 1.5 wt % component (a), 28 d) was 81. For the same compound, the “protease activity, referring” value (Savinase Ultra 16.0L; base formulation II., 1.5 wt % component (a), 42 d) was 70, the “protease activity, referring” value (Savinase Ultra 16.0L; base formulation II., 1.5 wt % component (a), T0) was 102 and the “protease activity, referring” value (Savinase Ultra 16.0L; [15]) was 99. The “protease activity, referring” value (Savinase Ultra 16.0L; [16]) was 95, the “protease activity, referring” value (Savinase Ultra 16.0L; [17]) was 91 and the “protease activity, referring” value (Savinase Ultra 16.0L; [18]) was 86. For the same compound, the “protease activity, referring” value (Savinase Ultra 16.0L; [19]) was 81, the “protease activity, referring” value (Savinase Ultra 16.0L; [20]) was 70 and the “protease activity, referring” value (Savinase Ultra 16.0L; [21]) was 101. For the same compound, the “protease activity, referring” value (Savinase Ultra 16.0L; base formulation V., 2.0 wt % component (a), 3 d) was 94, the “protease activity, referring” value (Savinase Ultra 16.0L; base formulation V., 2.0 wt % component (a), 7 d) was 90 and the “protease activity, referring” value (Savinase Ultra 16.0L; base formulation V., 2.0 wt % component (a), 14 d) was 85. For the same compound, the “protease activity, referring” value (Savinase Ultra 16.0L; base formulation V., 2.0 wt % component (a), 21 d) was 80, the “protease activity, referring” value (Savinase Ultra 16.0L; base formulation V., 2.0 wt % component (a), 28 d) was 76 and the “protease activity, referring” value (Savinase Ultra 16.0L; base formulation V., 2.0 wt % component (a), 42 d) was 68. The “protease activity, referring” value (Savinase Ultra 16.0L; base formulation V., 2.0 wt % component (a), T0) was 98.

For Monoethylcitrate [A.6], the “amylase activity, referring” value (Amy2=Amplify; 3 d) was 96, the “amylase activity, referring” value (Amy2=Amplify; 7 d) was 90 and the “amylase activity, referring” value (Amy2=Amplify; 14 d) was 83. For the same compound, the “amylase activity, referring” value (Amy2=Amplify; 21 d) was 74, the “amylase activity, referring” value (Amy2=Amplify; 28 d) was 63 and the “amylase activity, referring” value (Amy2=Amplify; 42 d) was 49. The “amylase activity, referring” value (Amy2=Amplify; T0) was 97, the “amylase activity, referring” value (Amy1=Stainzyme; [8]) was 95 and the “amylase activity, referring” value (Amy1=Stainzyme; [9]) was 84. The “amylase activity, referring” value (Amy1=Stainzyme; [10]) was 79, the “amylase activity, referring” value (Amy1=Stainzyme; [11]) was 70 and the “amylase activity, referring” value (Amy1=Stainzyme; [12]) was 61. For the same compound, the “amylase activity, referring” value (Amy1=Stainzyme; [13]) was 48, the “amylase activity, referring” value (Amy1=Stainzyme; [14]) was 98 and the “protease activity, referring” value (Savinase Ultra 16.0L; [8]) was 94. For the same compound, the “protease activity, referring” value (Savinase Ultra 16.0L; [9]) was 90, the “protease activity, referring” value (Savinase Ultra 16.0L; [10]) was 81 and the “protease activity, referring” value (Savinase Ultra 16.0L; [11]) was 73. The “protease activity, referring” value (Savinase Ultra 16.0L; [12]) was 67, the “protease activity, referring” value (Savinase Ultra 16.0L; [13]) was 56 and the “protease activity, referring” value (Savinase Ultra 16.0L; [14]) was 100. For the same compound, the “protease activity, referring” value (Savinase Ultra 16.0L; [15]) was 94, the “protease activity, referring” value (Savinase Ultra 16.0L; [16]) was 90 and the “protease activity, referring” value (Savinase Ultra 16.0L; [17]) was 84. The “protease activity, referring” value (Savinase Ultra 16.0L; [18]) was 78, the “protease activity, referring” value (Savinase Ultra 16.0L; [19]) was 70 and the “protease activity, referring” value (Savinase Ultra 16.0L; [20]) was 62. The “protease activity, referring” value (Savinase Ultra 16.0L; [21]) was 100.

Source: US20220112479A1, “COMPOUNDS STABILIZING AMYLASES IN LIQUIDS” (BASF SE, priority 2018, published 2022)
